Data: patent US20250144094A1 (Erasca, Inc., priority 2021, published 2025)

Biological target: Recombinant human ULK1 (1-649) (Homo sapiens (Human), UniProt O75385)
Assay: ULK1 ADP Glo kinase activity assay, new method (ULKtide peptide substrate)
Details: 25° C., 40 minutes, read-out: ULK1 biochemical IC50
Procedure: Recombinant human ULK1 (1-649) protein expressed in Sf9 insect cells was obtained from SignalChem (Vancouver, BC), catalog #U01-11G. Active kinase was purified via N-terminal GST tag to >85% purity.
ADP GLO Kinase Assay Reagents were obtained from Promega Corp (Madison, WI), catalog #V9104.
Synthetic peptide substrate (ULKtide) with the amino acid sequence YANWLAASIYLDGKKK was obtained from ThermoFisher Scientific USA.
ULK1 inhibitor potency was determined using the luminescent ADP Glo Kinase Assay (Promega), a universal ADP detection system that measures kinase activity by quantifying the amount of ADP produced during a kinase reaction. ULK1 kinase reactions are performed in a standard 96-well microplate (20 μL reaction volume) at 25° C. for 40 minutes in the presence or absence of the test compound (12-point dilution series starting at 10 μM). Addition of peptide substrate and ATP initiates the kinase reaction.
The standard ADP Glo assay is performed in two steps. In step one, following the kinase reaction, an equal volume of ADP-Glo™ Reagent (20 μL) is added to terminate the kinase reaction and deplete the remaining ATP. In the second step, the Kinase Detection Reagent (10 μL) is added to simultaneously convert ADP to ATP and allow the newly synthesized ATP to be measured using a luciferase/luciferin reaction. Step two of the ADP Glo assay is performed in a white 384-well plate (20 μL final volume). Thirty minutes after the addition of the Detection reagent, light generated from the luciferase reaction is measured (1 second exposure) using a microplate compatible luminometer (CLARIOstar, BMG Labtech).
Inhibition of ULK1 kinase activity is determined for each test compound by comparison to DMSO only control wells. Inhibitor IC50 was calculated by plotting the change in luminescence after 30 minutes (response) versus inhibitor concentration (in log molar) then applying the four-parameter variable slope curve fit (GraphPad Prism). Inhibition of ULK1 in biochemical assay is found in Table 4.

Sequence of Recombinant human ULK1 (1-649) (O75385 1-649): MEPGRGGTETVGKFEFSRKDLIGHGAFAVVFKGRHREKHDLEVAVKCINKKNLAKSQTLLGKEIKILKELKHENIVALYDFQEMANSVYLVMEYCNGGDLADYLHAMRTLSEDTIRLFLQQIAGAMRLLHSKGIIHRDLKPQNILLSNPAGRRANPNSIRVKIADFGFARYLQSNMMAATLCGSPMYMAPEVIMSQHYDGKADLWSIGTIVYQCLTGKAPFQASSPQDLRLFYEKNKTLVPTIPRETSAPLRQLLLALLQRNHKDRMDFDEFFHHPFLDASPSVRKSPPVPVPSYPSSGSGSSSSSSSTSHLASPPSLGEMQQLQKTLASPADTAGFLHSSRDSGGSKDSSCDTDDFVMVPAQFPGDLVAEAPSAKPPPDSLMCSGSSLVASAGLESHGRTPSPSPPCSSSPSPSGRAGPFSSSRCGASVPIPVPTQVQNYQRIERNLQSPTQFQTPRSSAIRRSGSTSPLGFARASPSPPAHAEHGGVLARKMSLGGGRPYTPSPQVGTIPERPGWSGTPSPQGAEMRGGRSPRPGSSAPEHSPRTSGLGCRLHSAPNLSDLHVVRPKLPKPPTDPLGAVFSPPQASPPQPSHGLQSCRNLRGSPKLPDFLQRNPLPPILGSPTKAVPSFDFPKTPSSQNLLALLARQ

SMILES	IC50
O=C1c2sc(-c3nc(Nc4ccc(N5CC6CC(C5)N6)cc4C4CC4)ncc3C(F)(F)F)cc2S(=O)(=O)CCN1C1CC1 [Example 338, 7-(2-((4-(3,6-diazabicyclo[3.1.1]heptan-3-yl)-2-cyclopropylphenyl)amino)-5-(trifluoromethyl)pyrimidin-4-yl)-4-cyclopropyl-3,4-dihydrothieno[2,3-f][1,4]thiazepin-5(2H)-one 1,1-dioxide]	≤ 5 nM
CN1CCS(=O)(=O)c2cc(-c3nc(Nc4cc5c(cc4C4CC4)CNCC5)ncc3C(F)(F)F)sc2C1=O [Example 173, 7-(2-((7-cyclopropyl-1,2,3,4-tetrahydroisoquinolin-6-yl)amino)-5-(trifluoromethyl)pyrimidin-4-yl)-4-methyl-3,4-dihydrothieno[2,3-f][1,4]thiazepin-5(2H)-one 1,1-dioxide]	≤ 5 nM
CN1CCS(=O)(=O)c2cc(-c3nc(Nc4cc5nnn(C)c5cc4Cl)ncc3C(F)(F)F)sc2C1=O [Example 200, 7-(2-((6-chloro-1-methyl-1H-benzo[d][1,2,3]triazol-5-yl)amino)-5-(trifluoromethyl)pyrimidin-4-yl)-4-methyl-3,4-dihydrothieno[2,3-f][1,4]thiazepin-5(2H)-one 1,1-dioxide]	> 100 nM
CCN1Cc2ccc(Nc3ncc(C(F)(F)F)c(-c4cc5c(s4)C(=O)N(C)CCS5(=O)=O)n3)c(C3CC3)c2C1 [Example 191, 7-(2-((4-cyclopropyl-2-ethylisoindolin-5-yl)amino)-5-(trifluoromethyl)pyrimidin-4-yl)-4-methyl-3,4-dihydrothieno[2,3-f][1,4]thiazepin-5(2H)-one 1,1-dioxide]	50 to 100 nM
CN1CCS(=O)(=O)c2cc(-c3nc(Nc4cc5c(cc4Cl)CNCC5)ncc3C3CC3)sc2C1=O [Example 283, 7-(2-((7-chloro-1,2,3,4-tetrahydroisoquinolin-6-yl)amino)-5-cyclopropylpyrimidin-4-yl)-4-methyl-3,4-dihydrothieno[2,3-f][1,4]thiazepin-5(2H)-one 1,1-dioxide]	≤ 5 nM
CCc1cc(N2CCN(C)[C@@H](C)C2)ccc1Nc1ncc(C(F)(F)F)c(-c2cc3c(s2)C(=O)N(C2COC2)CCS3(=O)=O)n1 [Example 362, (S)-7-(2-((4-(3,4-dimethylpiperazin-1-yl)-2-ethylphenyl)amino)-5-(trifluoromethyl)pyrimidin-4-yl)-4-(oxetan-3-yl)-3,4-dihydrothieno[2,3-f][1,4]thiazepin-5(2H)-one 1,1-dioxide]	≤ 5 nM
CCc1cc2c(cc1Nc1ncc(C(F)(F)F)c(-c3cc4c(s3)C(=O)N(C3CC3)CCS4(=O)=O)n1)CCN(CCF)C2 [Example 243]	≤ 5 nM
Cc1cc2c(cc1Nc1ncc(C(F)(F)F)c(-c3cc4c(s3)C(=O)N(C)CCS4(=O)=O)n1)CCN(CC1CC1)C2 [Example 205, 7-(2-((2-(cyclopropylmethyl)-7-methyl-1,2,3,4-tetrahydroisoquinolin-6-yl)amino)-5-(trifluoromethyl)pyrimidin-4-yl)-4-methyl-3,4-dihydrothieno[2,3-f][1,4]thiazepin-5(2H)-one 1,1-dioxide]	≤ 5 nM
Cc1ccc(C2CNC2)cc1Nc1ncc(C(F)(F)F)c(-c2cc(S(C)(=O)=O)cs2)n1 [Example 136, N-(5-(azetidin-3-yl)-2-methylphenyl)-4-(4-(methylsulfonyl)thiophen-2-yl)-5-(trifluoromethyl)pyrimidin-2-amine]	50 to 100 nM
CC(C)c1cc2c(cc1Nc1ncc(C(F)(F)F)c(-c3cc4c(s3)C(=O)N(C3CC3)CCS4(=O)=O)n1)CCNC2 [Example 263, 4-cyclopropyl-7-(2-((7-isopropyl-1,2,3,4-tetrahydroisoquinolin-6-yl)amino)-5-(trifluoromethyl)pyrimidin-4-yl)-3,4-dihydrothieno[2,3-f][1,4]thiazepin-5(2H)-one 1,1-dioxide]	≤ 5 nM
CC(C)c1cc2c(cc1Nc1ncc(C(F)(F)F)c(-c3cc4c(s3)C(=O)N(C3CC3)CCS4(=O)=O)n1)CCN(CC1COC1)C2 [Example 269, 4-cyclopropyl-7-(2-((7-isopropyl-2-(oxetan-3-ylmethyl)-1,2,3,4-tetrahydroisoquinolin-6-yl)amino)-5-(trifluoromethyl)pyrimidin-4-yl)-3,4-dihydrothieno[2,3-f][1,4]thiazepin-5(2H)-one 1,1-dioxide]	≤ 5 nM
CN1CCc2cc(Nc3ncc(C(F)(F)F)c(-c4cc5c(s4)C(=O)N(CC4CC4)CCS5(=O)=O)n3)c(Cl)cc2C1 [Example 154, 7-(2-((7-chloro-2-methyl-1,2,3,4-tetrahydroisoquinolin-6-yl)amino)-5-(trifluoromethyl)pyrimidin-4-yl)-4-(cyclopropylmethyl)-3,4-dihydrothieno[2,3-f][1,4]thiazepin-5(2H)-one 1,1-dioxide]	≤ 5 nM

The remaining lines, values ahead:

IC50	SMILES
≤ 5 nM	CC1(CN2CCc3cc(Nc4ncc(C(F)(F)F)c(-c5cc6c(s5)C(=O)N(C5CC5)CCS6(=O)=O)n4)c(C4CC4)cc3C2)COC1 [Example 279, 4-cyclopropyl-7-(2-((7-cyclopropyl-2-((3-methyloxetan-3-yl)methyl)-1,2,3,4-tetrahydroisoquinolin-6-yl)amino)-5-(trifluoromethyl)pyrimidin-4-yl)-3,4-dihydrothieno[2,3-f][1,4]thiazepin-5(2H)-one 1,1-dioxide]
≤ 5 nM	O=C1c2sc(-c3nc(Nc4cc5c(cc4C4CC4)CN(CC4COC4)CC5)ncc3C(F)(F)F)cc2S(=O)(=O)CCN1C1CC1 [Example 234, 4-cyclopropyl-7-(2-((7-cyclopropyl-2-(oxetan-3-ylmethyl)-1,2,3,4-tetrahydroisoquinolin-6-yl)amino)-5-(trifluoromethyl)pyrimidin-4-yl)-3,4-dihydrothieno[2,3-f][1,4]thiazepin-5(2H)-one 1,1-dioxide]
≤ 5 nM	CN1CCN(c2ccc(Nc3ncc(C(F)(F)F)c(-c4cc5c(s4)C(=O)N(C4COC4)CCS5(=O)=O)n3)c(C3CC3)c2)C[C@H]1C(N)=O [Example 372, (S)-4-(3-Cyclopropyl-4-((4-(4-(oxetan-3-yl)-1,1-dioxido-5-oxo-2,3,4,5-tetrahydrothieno[2,3-f][1,4]thiazepin-7-yl)-5-(trifluoromethyl)pyrimidin-2-yl)amino)phenyl)-1-methylpiperazine-2-carboxamide]
≤ 5 nM	CCc1cc2c(cc1Nc1ncc(C(F)(F)F)c(-c3cc4c(s3)C(=O)N(CC(F)(F)F)CCS4(=O)=O)n1)CCNC2 [Example 175, 7-(2-((7-ethyl-1,2,3,4-tetrahydroisoquinolin-6-yl)amino)-5-(trifluoromethyl)pyrimidin-4-yl)-4-(2,2,2-trifluoroethyl)-3,4-dihydrothieno[2,3-f][1,4]thiazepin-5(2H)-one 1,1-dioxide]
≤ 5 nM	CCc1cc2c(cc1Nc1ncc(C(F)(F)F)c(-c3cc4c(s3)C(=O)NCCS4(=O)=O)n1)CCN(C)C2 [Example 146, 7-(2-((7-ethyl-2-methyl-1,2,3,4-tetrahydroisoquinolin-6-yl)amino)-5-(trifluoromethyl)pyrimidin-4-yl)-3,4-dihydrothieno[2,3-f][1,4]thiazepin-5(2H)-one 1,1-dioxide]
≤ 5 nM	CC(C)c1cc2c(cc1Nc1ncc(C(F)(F)F)c(-c3cc4c(s3)C(=O)N(C3CC3)CCS4(=O)=O)n1)CCN(CC1CC1)C2 [Example 268, 4-cyclopropyl-7-(2-((2-(cyclopropylmethyl)-7-isopropyl-1,2,3,4-tetrahydroisoquinolin-6-yl)amino)-5-(trifluoromethyl)pyrimidin-4-yl)-3,4-dihydrothieno[2,3-f][1,4]thiazepin-5(2H)-one 1,1-dioxide]
≤ 5 nM	CCc1cc(N2C[C@H]3C[C@@H]2CN3)ccc1Nc1ncc(C(F)(F)F)c(-c2cc3c(s2)C(=O)N(C2CC2)CCS3(=O)=O)n1 [Example 322, 7-(2-((4-((1R,4R)-2,5-diazabicyclo[2.2.1]heptan-2-yl)-2-ethylphenyl)amino)-5-(trifluoromethyl)pyrimidin-4-yl)-4-cyclopropyl-3,4-dihydrothieno[2,3-f][1,4]thiazepin-5(2H)-one 1,1-dioxide]
≤ 5 nM	O=C1c2sc(-c3nc(Nc4cc5c(cc4Cl)CCNC5)ncc3C(F)(F)F)cc2S(=O)(=O)CCN1C1CC1 [Example 201, 7-(2-((6-chloro-1,2,3,4-tetrahydroisoquinolin-7-yl)amino)-5-(trifluoromethyl)pyrimidin-4-yl)-4-cyclopropyl-3,4-dihydrothieno[2,3-f][1,4]thiazepin-5(2H)-one 1,1-dioxide]
≤ 5 nM	O=C1c2sc(-c3nc(Nc4ccc(N5C[C@@H]6C[C@H]5CN6)cc4C4CC4)ncc3C(F)(F)F)cc2S(=O)(=O)CCN1C1COC1 [Example 310, 7-(2-((4-((1S,4S)-2,5-diazabicyclo[2.2.1]heptan-2-yl)-2-cyclopropylphenyl)amino)-5-(trifluoromethyl)pyrimidin-4-yl)-4-(oxetan-3-yl)-3,4-dihydrothieno[2,3-f][1,4]thiazepin-5(2H)-one 1,1-dioxide]
